Source: patent US9975983B2, “Bio-reducible self-assembled liquid crystalline block copolymer for drug delivery” (UNIVERSITY OF CONNECTICUT, priority 2014, dated 2018)

Legend:
A549 cells [1] = assay: Intracellular uptake and release by CLSM in A549 cells; assay type: cell-based, human; details: 10 μg/mL DOX equivalents
Protocol: (§1) A549 (cancer cells) and NIH3T3 (normal cells) cells were seeded at a density of 1.0×10^5 cells/well in an 8-well chamber of a Lab-Tek II chamber slide and preincubated for 24 h at 37° C. and 5% CO2. Serum-free DMEM containing free DOX and DOX-NPs at equivalent doses (10 μg/mL) was added to each well, followed by incubation for 30 min, 2 h and 4 h at 37° C. The cells were then rinsed with PBS, and fixed with 4% formaldehyde solution for 10 min. Cover glasses were then placed on glass slides. The cellular uptake and release behavior of DOX-encapsulated SS or thioester NPs were imaged by confocal laser scanning microscopy (CLSM) (Leica, England) at an excitation wavelength of 488 nm for DOX. Since DOX itself is fluorescent, it was used directly to investigate cellular uptake without additional fluorescent labeling in of the nanoparticles.

HeLa cells [2] = assay: MTT cytotoxicity in HeLa cells; assay type: cell-based; details: equal DOX concentrations
Protocol: (§2) HeLa cells (7500 cells/well) were seeded on 96-well plates and cultured in 200 μL of DMEM supplemented with 10% FBS, 1% antibiotics, and 1% L-glutamine for 24 h at 37° C. and 5% CO2. After incubation, various concentrations of the blank nanoparticles (0.2-1 mg/mL), DOX-NPs, and free DOX (1-50 μg/mL of DOX equivalents) dissolved in DMEM without supplements were added. After 24 h of incubation with free DOX and DOX-NPs, and 48 h with blank nanoparticles, cytotoxicity was determined using 3-[4,5-dimethylthiazol-2-yl]-[…] bromide dye (MTT dye, final concentration of 0.5 mg/mL) uptake at 540 nm on a microplate reader (Tecan group Ltd., Männedorf, Switzerland).

HeLa cells [3] = assay: Cellular uptake by CLSM in HeLa cells; assay type: cell-based
Protocol: To observe the cellular uptake, HeLa cells (cancer cells) were seeded at a density of 1.0×10^5 cells/well in an 8-well chamber of a Lab-Tek II chamber slide and preincubated for 24 h at 37° C. and 5% CO2. […] The cells were then rinsed with PBS, stained with 10 μM Draq5 and fixed with 4% formaldehyde solution for 10 min. Cover glasses were then placed on glass slides. The cellular uptake of free DOX and DOX-NPs was imaged by CLSM at an excitation wavelength of 488 nm for DOX. To quantify cellular uptake, HeLa cells (5×10^5 cells/well) in 0.5 mL were grown on a 24-well plate at 37° C. in a humidified atmosphere of 5% CO2 for 24 h. Serum-free DMEM containing free DOX and DOX-NPs at equivalent doses (25 μg/mL) was added to the cells which were subsequently incubated for 2 h. The cells were then washed three times with PBS, harvested by trypsinization and transferred into Fluorescence Activated Cell Sorter (FACS) tubes. All samples were analyzed by flow cytometry (FACSCalibur, BD Biosciences, San Jose, Calif.) to determine cellular internalization. Fluorescence measurements of intracellular DOX were performed in the FL2 channel.

NIH3T3 cells = assay: Intracellular uptake and release by CLSM in NIH3T3 cells; assay type: cell-based, Mouse; details: 10 μg/mL DOX equivalents, 30 min to 4 h
Protocol: as §1

A549 cells [4] = assay: MTT cytotoxicity in A549 cells; assay type: cell-based, human; details: 24 h
Protocol: as §2, with “A549 and NIH3T3” for “HeLa”, “DOX-encapsulated SS or thioester NPs” for “the blank nanoparticles (0.2-1 mg/mL), DOX-NPs,”, “incubation,” for “incubation with free DOX and DOX-NPs, and 48 h with blank nanoparticles,”, “Mannedorf,” for “Männedorf,”

[5] = in vivo; cited from earlier work

Row | Compound | Location of red DOX fluorescent signal (A549 cells [1]; 30 min) | Location of red DOX fluorescent signal (A549 cells [1]; 2 h and 4 h) | Relative cytotoxicity (HeLa cells [2]) | Red DOX fluorescent signal in cells (HeLa cells [3]; 2 h) | Cell morphology (HeLa cells [3]; 4 h) | Red DOX fluorescent signal in cells (HeLa cells [3]; 4 h) | Location of red DOX fluorescent signal (NIH3T3 cells) | Decrease of cell viability (A549 cells [4]; 1-50 μg/mL DOX, dose-dependent) | Cytotoxicity relative to DOX-encapsulated thioester-NPs (A549 cells [4]; all DOX concentrations) | Biodistribution of free dye [5]
1 | COc1cccc2c1C(=O)c1c(O)c3c(c(O)c1C2=O)C[C@@](O)(C(=O)CO)C[C@@H]3O[C@H]1C[C@H](N)[C@H](O)[C@H](C)O1 [free DOX, doxorubicin] | entered the cellular nuclei | strong red signal in the cellular nuclei | significantly higher cytotoxicity than DOX-encapsulated NPs | red fluorescent signal was observed | cell shrinkage and blebbing | significant increases in the red signal | red signal was observed in the cellular nuclei | 5-82% | significantly higher | 
2 | CCCCCCCCCCCCCCCCCCN1C(=CC=CC=CC=CC2=[N+](CCCCCCCCCCCCCCCCCC)c3ccccc3C2(C)C)C(C)(C)c2ccccc21.[I-] [free hydrophobic DiR, 1,1′-Dioctadecyl-3,3,3′,3′-tetramethylindotricarbocyanine iodide] |  |  |  |  |  |  |  |  |  | accumulated in liver from 1 h to 24 h with negligible tumor accumulation
